For orientation: CC50 means the concentration at which the toxic effect on the cells reaches its halfway point. For orientation: EC50 means the concentration at which the effect is half-maximal. The term Kd denotes the free concentration of one partner at which half of the binding sites on the other are occupied at equilibrium, for simple one-to-one binding.

Data set [1] is described as follows: Cytotoxicity against human HT-29 cells assessed as reduction in cell viability by celltiter-glo luminescent cell viability assay. Type of data set: toxicity, cell-based.
For a further data set, the system named is HT-29. The experiment in a line: Anti-necroptotic activity in TSZ induced human HT-29 cells assessed as increase in cell viability pretreated with compound followed by TSZ stimulation and measured after 16 hrs by celltiter-glo luminescent cell viability assay. Type of data set: functional, cell-based. For orientation: In ATP-based viability assays light output follows the ATP content of the culture.

Data set [2] deals with T1, Receptor-interacting serine/threonine-protein kinase 1 (Homo sapiens, UniProt Q13546).
T1 sequence (Q13546 whole entry): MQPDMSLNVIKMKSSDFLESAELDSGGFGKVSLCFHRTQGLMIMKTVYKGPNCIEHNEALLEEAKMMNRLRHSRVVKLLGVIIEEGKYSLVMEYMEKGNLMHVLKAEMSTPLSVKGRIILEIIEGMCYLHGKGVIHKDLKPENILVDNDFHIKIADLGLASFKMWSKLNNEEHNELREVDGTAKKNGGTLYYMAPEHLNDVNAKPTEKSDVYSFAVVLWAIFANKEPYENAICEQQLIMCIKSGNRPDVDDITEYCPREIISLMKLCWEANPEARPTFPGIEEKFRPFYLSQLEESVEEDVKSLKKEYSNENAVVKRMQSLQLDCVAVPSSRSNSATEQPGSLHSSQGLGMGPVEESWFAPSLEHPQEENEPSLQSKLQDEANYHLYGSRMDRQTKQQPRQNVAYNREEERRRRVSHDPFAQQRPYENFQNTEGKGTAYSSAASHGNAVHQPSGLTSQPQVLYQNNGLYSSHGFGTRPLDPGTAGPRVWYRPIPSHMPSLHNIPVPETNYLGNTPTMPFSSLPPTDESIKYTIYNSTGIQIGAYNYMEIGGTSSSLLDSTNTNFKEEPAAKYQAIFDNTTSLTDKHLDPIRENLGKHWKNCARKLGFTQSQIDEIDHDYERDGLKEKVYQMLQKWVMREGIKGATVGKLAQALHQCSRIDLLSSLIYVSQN
The experiment in a line: Binding affinity to recombinant human wild type partial length RIPK1 (M1 to K305 residues) expressed in bacterial expression system by KINOMEscan TM assay.

In data set [3] the target is Receptor-interacting serine/threonine-protein kinase 3 (Homo sapiens, UniProt Q9Y572). The experiment in a line: Binding affinity to recombinant human wild type partial length RIPK3 (M1 to Q307 residues) expressed in bacterial expression system by KINOMEscan TM assay.
Sequence of Receptor-interacting serine/threonine-protein kinase 3 (Q9Y572 whole entry, the tested form may be a part): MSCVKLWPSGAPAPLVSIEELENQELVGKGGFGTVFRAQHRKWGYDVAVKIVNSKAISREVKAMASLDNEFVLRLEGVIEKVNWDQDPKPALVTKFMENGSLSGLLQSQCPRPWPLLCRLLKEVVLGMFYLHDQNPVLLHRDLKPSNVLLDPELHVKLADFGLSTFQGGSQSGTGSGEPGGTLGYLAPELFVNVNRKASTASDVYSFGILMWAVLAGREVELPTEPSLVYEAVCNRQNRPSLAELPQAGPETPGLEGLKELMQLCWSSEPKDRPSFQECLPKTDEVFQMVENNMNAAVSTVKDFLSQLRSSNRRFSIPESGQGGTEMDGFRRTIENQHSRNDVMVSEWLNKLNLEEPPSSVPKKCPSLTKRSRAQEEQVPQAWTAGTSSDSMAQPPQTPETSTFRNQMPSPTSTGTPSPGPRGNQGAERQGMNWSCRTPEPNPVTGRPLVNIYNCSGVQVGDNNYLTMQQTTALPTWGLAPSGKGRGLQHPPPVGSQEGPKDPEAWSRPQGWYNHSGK

In the case of `CN1C(=O)[C@@H](NC(=O)c2nnc(Cc3ccccc3)[nH]2)COc2ccccc21` [GSK2982772], the CC50 in data set [1] was greater than 50000 nM.
On to `O=C1CCC(C(=O)Nc2nc3cc(Oc4ccc(F)c(NC(=O)Cc5cccc(OC(F)(F)F)c5)c4)c(F)cc3s2)CC1`, for which the CC50 in data set [1] was greater than 50000 nM. In addition, the EC50 in the data set with HT-29 was determined as 10 nM. For the same compound, the Kd in data set [2] was 4.5 nM; in data set [3], greater than 5000 nM.
For `O=C(Cc1cccc(OC(F)(F)F)c1)Nc1cc(Oc2cc3nc(NC(=O)C4CC4)sc3cc2F)ccc1F`, in data set [1], the CC50 was greater than 50000 nM. In addition, the EC50 with HT-29 was 82 nM. For the same compound, the Kd turned out to be 49 nM in data set [2] and 120 nM in data set [3].
In the same order, the values of `O=C(Cc1cccc(C(F)(F)F)c1)Nc1cc(Oc2cc3nc(NC(=O)C4CC4)sc3cc2F)ccc1F` are 36500 nM, 170 nM, 97 nM and 77 nM.
For `O=C(Cc1cccc(OC(F)(F)F)c1)Nc1cc(Oc2cc3nc(NC(=O)C4CCOC4)sc3cc2F)ccc1F` (centres undefined) the same measures were greater than 50000 nM, 13 nM, 12 nM and greater than 5000 nM.
For `CC1(C)CC1C(=O)Nc1nc2cc(Oc3ccc(F)c(NC(=O)Cc4cccc(OC(F)(F)F)c4)c3)c(F)cc2s1` (centres undefined) the same measures were greater than 50000 nM, 12 nM, 25 nM and greater than 5000 nM.
For `O=C1CCC(C(=O)Nc2nc3cc(Oc4ccc(F)c(NC(=O)Cc5cccc(OC(F)(F)F)c5)c4)c(F)cc3s2)C1` (centres undefined), the CC50 in data set [1] was greater than 50000 nM. Besides, the EC50 in the data set on HT-29 was determined as 8 nM. Besides, the values for the Kd in data set [2] and in data set [3] were 9.6 nM and greater than 5000 nM, respectively.
`O=C(Cc1cccc(OC(F)(F)F)c1)Nc1cc(Oc2cc3nc(NC(=O)C4CC4F)sc3cc2F)ccc1F` (centres undefined): in data set [1], the CC50 was greater than 50000 nM. In addition, the EC50 with HT-29 stood at 10 nM. Besides, the values for the Kd in data set [2] and in data set [3] were 18 nM and greater than 5000 nM, respectively.

(Values after ChEMBL document CHEMBL5096222, “Discovery of a Trifluoromethoxy Cyclopentanone Benzothiazole Receptor-Interacting Protein Kinase 1 Inhibitor as the Treatment for Alzheimer's Disease” (J Med Chem, 2022).)
